We go through 1 compound from PMC12838644, “Dihydrotanshinone as a Natural Product-Based CYP17A1 Lyase Inhibitor for Hyperandrogenic Disorders” (Biomolecules, 2026).

In test [1] the target is T1, CYP17A1 17α-hydroxylase (Homo sapiens, UniProt P05093).
T1 sequence (P05093 1-508): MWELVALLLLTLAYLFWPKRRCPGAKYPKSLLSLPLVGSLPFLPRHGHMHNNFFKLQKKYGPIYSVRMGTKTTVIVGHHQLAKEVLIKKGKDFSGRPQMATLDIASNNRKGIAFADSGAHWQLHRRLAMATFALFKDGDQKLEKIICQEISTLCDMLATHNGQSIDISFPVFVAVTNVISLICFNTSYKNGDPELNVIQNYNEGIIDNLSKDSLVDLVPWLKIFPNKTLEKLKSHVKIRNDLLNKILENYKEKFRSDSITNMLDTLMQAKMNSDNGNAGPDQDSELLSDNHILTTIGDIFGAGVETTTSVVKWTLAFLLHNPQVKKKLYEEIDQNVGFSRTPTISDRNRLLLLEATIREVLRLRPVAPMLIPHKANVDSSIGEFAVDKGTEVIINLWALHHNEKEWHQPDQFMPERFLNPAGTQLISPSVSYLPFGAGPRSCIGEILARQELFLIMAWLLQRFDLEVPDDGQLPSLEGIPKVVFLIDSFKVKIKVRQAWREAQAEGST
The test is described as follows: CYP17A1 17α-hydroxylase activity assay (progesterone to 17OH-progesterone, reconstituted POR/CYP17A1). Type of test: biochemical. The conditions noted are these: 10 µM (SM extract 10 µg/mL). Here is the method: (§1) Assay of CYP17A1 17α-hydroxylase and 17,20-lyase activities were performed as described previously. The 17α-hydroxylase activity was measured by conversion of progesterone to 17OH-progesterone, while production of DHEA from 17OH-pregnenolone was used for monitoring the 17,20-lyase activity of CYP17A1. In vitro CYP17A1 assays were performed using a liposome system consisting of human p450 oxidoreductase (POR) and CYP17A1 at a ratio of 3:4 (POR: CYP17A1). The final assay mixture consisted of proteins (37.5 nmol POR: 50 nmol CYP17A1), 10 mM MgCl2, 6 mM potassium acetate (KOAc), 0.05 mg/mL DLPC,1 mM reduced Glutathione in 50 mM HEPES-NaOH buffer (pH 7.4), and the reaction volume was 200 μL. The drugs were added to the final mixture and incubated for 1h before the catalytic reaction was initiated by the addition of NADPH to 1 mM final concentration. Radiolabeled [^14C]-progesterone (10,000 cpm in 1 µM) was used as a tracer in each reaction. Steroids were extracted and separated by thin-layer chromatography (TLC) on silica gel (SIL G/UV254) TLC plates (Macherey-Nagel, Oensingen, Switzerland) as previously described.

The target of test [2] is T2, CYP17A1 17,20-lyase (Homo sapiens, UniProt P05093).
T2 sequence (P05093 1-508): T1 sequence (P05093 1-508)
The test is described as follows: CYP17A1 17,20-lyase activity assay (DHEA from 17OH-pregnenolone, POR, CYP17A1 and cytochrome b5). Type of test: biochemical. The procedure:
as §1, with “The final assay mixture consisted of proteins (37.5 nmol POR: 50 nmol CYP17A1), 10 mM MgCl2, 6 mM potassium acetate (KOAc), 0.05 mg/mL DLPC,1 mM reduced Glutathione in 50 mM HEPES-NaOH buffer (pH 7.4), and the reaction volume was 200 μL.” left out
In vitro CYP17A1 17,20-lyase activity assays were performed using POR, CYP17A1 and cytochrome b5 as described previously. The final assay mixture consisted of proteins, 10 mM MgCl2, 6 mM KOAc, 0.05 mg/mL DLPC, 1 mM reduced glutathione in 50 mM HEPES-NaOH buffer (pH 7.4), and the reaction volume was 200 μL. The drugs were added to the final mixture and incubated for 1h before the catalytic reaction was initiated by the addition of NADPH to 1 mM final concentration. Radiolabeled [^3H]-17OH-pregnenolone (50,000 cpm in 1 µM) was added as a tracer and the enzyme activity was measured by using the scintillation counter in the water release assay.

The target of test [3] is T3, CYP21A2 (Homo sapiens, UniProt P08686).
T3 construct: expressed in transfected cells; host or cells: HEK293 / HEK-293T
T3 sequence (P08686 1-495): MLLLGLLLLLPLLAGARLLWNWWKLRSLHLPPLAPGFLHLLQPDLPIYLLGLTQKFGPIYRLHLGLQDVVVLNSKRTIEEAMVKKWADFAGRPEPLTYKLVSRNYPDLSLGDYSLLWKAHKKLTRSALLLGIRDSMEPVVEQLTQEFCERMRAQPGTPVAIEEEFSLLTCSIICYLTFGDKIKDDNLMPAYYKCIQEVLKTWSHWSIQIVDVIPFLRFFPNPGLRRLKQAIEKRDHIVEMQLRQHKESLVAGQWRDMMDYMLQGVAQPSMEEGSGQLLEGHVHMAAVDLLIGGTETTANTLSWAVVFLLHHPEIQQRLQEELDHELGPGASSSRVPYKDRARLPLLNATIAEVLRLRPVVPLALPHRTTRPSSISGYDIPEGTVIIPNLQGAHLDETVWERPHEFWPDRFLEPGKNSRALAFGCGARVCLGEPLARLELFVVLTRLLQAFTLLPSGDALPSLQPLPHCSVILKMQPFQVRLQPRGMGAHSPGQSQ
The test can be described thus: CYP21A2 activity assay in transiently transfected HEK-293T cells. It is filed as cell-based. The conditions noted are these: transfected HEK-293T cells. The procedure:
Transient transfections were performed using the CYP21A2 WT vector as described previously. HEK293 cells were seeded in six-well plates (3 × 10^5 cells/well). After 24 h, the growth medium was replaced, and cells were transfected using Lipofectamine 2000 (Thermo Fisher Scientific, Bedford, MA, USA) with 12.5 µg of plasmid (plasmid concentration: 1068 µg/mL). Twenty-four hours after transfection, transfected cells were replated in 24-well plates (1.5 × 10^5 cells/well) to ensure homogeneity of the cell population across the wells. Six hours after transfection, 2 mL of fresh medium was replaced, and the cells were cultured for 48 h. Cell growth was examined. […] DMSO was added to the negative control, and 10 µM abiraterone was added to the positive control, and the cells were incubated for 4 h. Functional assays were initiated by adding 1 µM unlabeled progesterone (using 10,000 cpm of [^14C]-progesterone as a tracer). After incubation at 37 °C for 1 h, the culture medium and cells were harvested. Steroids were extracted from the culture medium with ethyl acetate and isooctane (1:1 volume ratio), dried, and dissolved in dichloromethane. Steroids were separated by thin-layer chromatography (TLC), placed on a phosphor screen, and visualized using a Typhoon PhosphorImager FLA-7000 (GE Healthcare Bio-Sciences AB, Uppsala, Sweden). Image intensity was measured and quantified using ImageQuant TL v8 (Cytiva, Marlborough, MA, USA). The CYP21A2 enzyme activity was expressed as relative steroid conversion. Steroids were quantified as a percentage of radioactivity incorporated into […] to the total radioactivity measured in the whole sample and compared between the WT and variants. Cells were collected with trypsin and washed with 1× PBS to quantify the amount of protein. Results were analyzed from three technical replicates. To ensure a similar amount of CYP21A2 in each reaction, a Western blot analysis was performed to normalize the enzyme activity with the relative CYP21A2 expression.

SMILES strings stand for the structures.

As usually defined, the inhibition is the share of the control response that was lost under treatment. In the case of `C[C@]12CC[C@H](O)CC1=CC[C@@H]1[C@@H]2CC[C@]2(C)C(c3cccnc3)=CC[C@@H]12` [Abiraterone, abiraterone, reference compound], the inhibition at 10 µM in test [1] (calculated as 100% − % residual activity, read-out: % Inhibition CYP17A1-OH) is 94.7%; in test [2] (10 µM (SM extract 10 µg/mL), calculated as 100% − % residual activity, read-out: % Inhibition CYP17A1-Lyase) it was 69.6%; in test [3] (10 µM (SM extract 10 µg/mL), calculated as 100% − % residual activity, read-out: % Inhibition CYP21A2) it was 29.8%. The “Residual 17α-hydroxylase activity” value in test [1] (% of DMSO control) is 5.3%. Also, in test [2] (% of DMSO control, 10 µM (SM extract 10 µg/mL)), the “Residual 17,20-lyase activity” value is 30%. For the same compound, the “Lyase/CYP21A2 Selectivity Index” value in test [2] ((% Inhibition Lyase)/(% Inhibition CYP21A2) at 10 µM (SM 10 µg/mL)) is on record as 2.34. Also, in test [2] ((% Inhibition Lyase)/(% Inhibition OH) at 10 µM (SM 10 µg/mL)), the “Lyase/OH Selectivity Index” value was determined as 0.73. The “Residual CYP21A2 activity” value in test [3] (% of DMSO control, 10 µM) was found to be 70%.
